{"source": "patent US20130245028A1", "about": "“TREATMENT OF CANCER WITH TOR KINASE INHIBITORS” (SIGNAL PHARMACEUTICALS, LLC, priority 2012, published 2013)", "key": {"[1]": {"system": "LNCaP, VCaP, DU145 or PC3 prostate cancer cell lines", "experiment": "Matrigel cell invasion assay for ETS positive and ETS negative lines", "format": "cell-based", "conditions": "10 μM, 48 hours treatment; FIG. 3", "description": "Cell Invasion Assay for ETS Positive and ETS Negative Lines. […] Then cells were tripsinized and re-seeded onto BD biocoat matrigel invasion chamber insert with […] of a 24-well culture plate in serum free media. Cells were then attracted to the lower chamber by the addition of complete media as a chemoattractant. After 48 hours incubation at 37° C./5% CO2, the non-invading cells and EC matrix were gently removed with a cotton swab. Invasive cells, which were located on the lower side of the membrane, were stained with crystal violet, air dried and photographed (FIG. 3)."}, "[2]": {"system": "PC3 and PC3-ERG prostate cancer cells", "experiment": "Clonogenic growth inhibition assay for ETS positive and ETS negative lines", "format": "cell-based", "conditions": "PC3 vs PC3-ERG (ETS overexpression); FIG. 1A-C", "excerpt": "Clonogenic Assay: Growth Inhibition Assay for ETS Positive and ETS Negative Lines. […] Then, cells were washed three times with PBS, trypsinized, and replated onto 6 well plates at desired cell densities. Every 3 days the media was replaced with fresh media containing compound. After typically 10-18 days, the cells were fixed and surviving colonies were stained with 0.1% crystal violet and counted by Image Quant (BD biosciences)."}, "[3]": {"system": "ETS-positive (VCaP and LNCaP) and ETS-negative (PC3 and DU145) prostate cancer cell lines", "experiment": "Caspase 3/7-Glo apoptosis assay for ETS positive and ETS negative lines", "format": "cell-based", "conditions": "single treatment, 48 hours; FIG. 2", "description": "Caspase Analysis: Apoptosis Assay for ETS Positive and ETS Negative Lines. […] Cells were then directly seeded at desired densities to the Compound 1-spotted 384-well plates. Cells were cultured for 48 hours at 37° C./5% CO2 and were assessed via Caspase 3/7-Glo (Promega Corporation, Madison, Wis.) and read for luminescence."}, "LNCaP-HR tumor": {"system": "LNCaP-HR tumor", "experiment": "Castration-resistant LNCaP (LNCaP-HR) prostate cancer in vivo xenograft model", "conditions": "castrated male SCID mice, oral QD up to 15 days, 1 to 5 mg/kg; FIG. 5", "description": "Castration-Resistant LNCaP (LNCaP-HR) Prostate Cancer In Vivo Xenograft Model A xenograft study was conducted with castration resistant LNCaP-HR tumor-bearing mice. Castrated male SCID mice were inoculated subcutaneously with LNCaP-HR cells in the flank region above the right hind leg. Following inoculation of animals, the tumors were allowed to grow to about 325 mm^3 prior to randomization. On Day 26 following tumor cell inoculation, the mice bearing LNCaP-HR tumors ranging between 98 and 530 mm^3 were pooled together and randomized into various treatment groups. […] The positive control MDV-3100 (50 mg/kg, Q4D) was administered via oral route. MDV-3100 was formulated in 1% CMC, 0.1% Tween 80 and 5% dimethyl sulfoxide (DMSO) in water (as a suspension). Tumors were measured twice a week using calipers and tumor volumes were calculated using the formula of W2×L/2 (wherein “W” is tumor width and “L” is tumor length). Statistical analysis was performed using a one-way analysis of variance (ANOVA) followed by Dunnett's post-hoc comparison with the vehicle-treated control group."}, "[4]": {"system": "ETS positive prostate cancer cells (VCAP and LNCAP)", "experiment": "COMET DNA damage assay", "format": "cell-based", "conditions": "FIG. 4", "excerpt": "DNA Damage Assays: COMET Assay."}}, "data": [{"substance": "1-ethyl-7-(2-methyl-6-(1H-1,2,4-triazol-3-yl)pyridin-3-yl)-3,4-dihydropyrazino[2,3-b]pyrazin-2(1H)-one [Compound 1]", "values": [{"measurement": "cell invasion", "setting": "[1]", "result": "reduced cell invasion"}, {"measurement": "clonogenic growth inhibition (surviving colonies)", "setting": "[2]", "result": "ETS overexpression sensitizes PC3 cells to inhibition"}, {"measurement": "Caspase activity (apoptosis)", "setting": "[3]", "result": "increased apoptosis in ETS positive cell lines"}, {"measurement": "LNCaP-HR prostate cancer tumor growth", "setting": "LNCaP-HR tumor", "result": "significantly inhibited"}, {"measurement": "DNA damage (COMET tail moments)", "setting": "[4]", "result": "potentiates DNA damage in ETS positive cells"}]}]}
